Assay results taken from ChEMBL document CHEMBL1201862, “PubChem BioAssay data set” (2004).
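Assay format: 96-well plates, 48-hour exposure. GI50: concentration for 50% inhibition of growth.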 Activity calls are given as the source filed them. No stated cut-off is given here; in the data, active = GI50 up to about 1.1 µM and inactive = higher.

Tests used:
Experiment in all cases: DTP human tumour cell line panel, 48 h
786-0 = test system: 786-0
A498 = test system: A498
ACHN = test system: ACHN
BT-549 = test system: BT-549
CAKI-1 = test system: CAKI-1
CCRF-CEM = test system: CCRF-CEM
COLO 205 = test system: COLO 205
EKVX = test system: EKVX
HCC 2998 = test system: HCC 2998
HCT-116 = test system: HCT-116
HCT-15 = test system: HCT-15
HL-60 = test system: HL-60
HOP-62 = test system: HOP-62
HOP-92 = test system: HOP-92
HT-29 = test system: HT-29
Hs-578T = test system: Hs-578T
IGROV-1 = test system: IGROV-1
K562 = test system: K562
KM12 = test system: KM12
LOX IMVI = test system: LOX IMVI
M14 = test system: M14
MCF7 = test system: MCF7
MDA-MB-231 = test system: MDA-MB-231
MDA-MB-435 = test system: MDA-MB-435
MOLT-4 = test system: MOLT-4
NCI-H226 = test system: NCI-H226
NCI-H23 = test system: NCI-H23
NCI-H460 = test system: NCI-H460
NCI/ADR-RES = test system: NCI/ADR-RES
OVCAR-4 = test system: OVCAR-4
OVCAR-8 = test system: OVCAR-8
PC-3 = test system: PC-3
RPMI-8226 = test system: RPMI-8226
RXF 393 = test system: RXF 393
SF-268 = test system: SF-268
SF-295 = test system: SF-295
SF-539 = test system: SF-539
SK-MEL-28 = test system: SK-MEL-28
SK-MEL-2 = test system: SK-MEL-2
SK-MEL-5 = test system: SK-MEL-5
SK-OV-3 = test system: SK-OV-3
SNB-19 = test system: SNB-19
SNB-75 = test system: SNB-75
SR = test system: SR
SW-620 = test system: SW-620
T47D = test system: T47D
TK-10 = test system: TK-10
U-251 = test system: U-251
UACC-257 = test system: UACC-257
UACC-62 = test system: UACC-62
UO-31 = test system: UO-31
A549 = test system: A549
DU-145 = test system: DU-145
MDA-N = test system: MDA-N
Malme-3M = test system: Malme-3M
NCI-H522 = test system: NCI-H522
OVCAR-3 = test system: OVCAR-3
SN12C = test system: SN12C
OVCAR-5 = test system: OVCAR-5

COc1cc(OC)cc(Oc2nc3c(N)cc(C(F)(F)F)cc3nc2-c2ccccc2)c1
GI50 (786-0): 55.1 µM (inactive) | GI50 (A498): > 100 µM (inactive) | GI50 (ACHN): 28.5 µM (inactive) | GI50 (BT-549): > 100 µM (inactive) | GI50 (CAKI-1): 26.9 µM (inactive) | GI50 (CCRF-CEM): 12.8 µM (inactive) | GI50 (COLO 205): 20.1 µM (inactive) | GI50 (EKVX): 25.5 µM (inactive) | GI50 (HCC 2998): 24.3 µM (inactive) | GI50 (HCT-116): 22.6 µM (inactive) | GI50 (HCT-15): 18.1 µM | GI50 (HL-60): 16.6 µM (inactive) | GI50 (HOP-62): > 100 µM (inactive) | GI50 (HOP-92): > 100 µM (inactive) | GI50 (HT-29): 15.9 µM (inactive) | GI50 (Hs-578T): 80.4 µM (inactive) | GI50 (IGROV-1): 21.8 µM (inactive) | GI50 (K562): 2.71 µM (inactive) | GI50 (KM12): 13.8 µM (inactive) | GI50 (LOX IMVI): 20.4 µM (inactive) | GI50 (M14): 49.3 µM (inactive) | GI50 (MCF7): 8.93 µM (inactive) | GI50 (MDA-MB-231): 28.9 µM (inactive) | GI50 (MDA-MB-435): 11.4 µM (inactive) | GI50 (MOLT-4): 9.27 µM (inactive) | GI50 (NCI-H226): 43.2 µM (inactive) | GI50 (NCI-H23): 92.7 µM (inactive) | GI50 (NCI-H460): 30.2 µM (inactive) | GI50 (NCI/ADR-RES): 52.6 µM (inactive) | GI50 (OVCAR-4): 78.9 µM (inactive) | GI50 (OVCAR-8): 46.3 µM (inactive) | GI50 (PC-3): 26.2 µM (inactive) | GI50 (RPMI-8226): 16.4 µM (inactive) | GI50 (RXF 393): 21.1 µM (inactive) | GI50 (SF-268): 74.8 µM (inactive) | GI50 (SF-295): 49.5 µM (inactive) | GI50 (SF-539): 99.3 µM (inactive) | GI50 (SK-MEL-28): 61.8 µM (inactive) | GI50 (SK-MEL-2): 20 µM (inactive) | GI50 (SK-MEL-5): 37.3 µM (inactive) | GI50 (SK-OV-3): 44.4 µM (inactive) | GI50 (SNB-19): 95.7 µM (inactive) | GI50 (SNB-75): 47.9 µM (inactive) | GI50 (SR): 11.1 µM (inactive) | GI50 (SW-620): 28.5 µM (inactive) | GI50 (T47D): 3.14 µM (inactive) | GI50 (TK-10): 60.5 µM (inactive) | GI50 (U-251): 44.8 µM (inactive) | GI50 (UACC-257): 79.3 µM (inactive) | GI50 (UACC-62): > 100 µM (inactive) | GI50 (UO-31): > 100 µM (inactive)

COc1cc([C@@H]2c3cc4c(cc3C[C@@H]3COC(=O)C32)OCO4)cc(OC)c1O (some centres undefined)
GI50 (786-0): 0.0299 µM (active) | GI50 (A498): 0.211 µM (active) | GI50 (A549): 0.0668 µM (active) | GI50 (ACHN): 0.03 µM (active) | GI50 (BT-549): 0.038 µM (active) | GI50 (CAKI-1): 0.0183 µM (active) | GI50 (CCRF-CEM): 0.0228 µM (active) | GI50 (COLO 205): 0.0306 µM (active) | GI50 (DU-145): 0.0973 µM (active) | GI50 (EKVX): 0.0284 µM (active) | GI50 (HCT-116): 0.0297 µM (active) | GI50 (HCT-15): 0.0294 µM | GI50 (HL-60): 0.0274 µM (active) | GI50 (HOP-62): 0.03 µM (active) | GI50 (HOP-92): 0.0957 µM (active) | GI50 (HT-29): 0.034 µM (active) | GI50 (IGROV-1): 0.0254 µM (active) | GI50 (K562): 0.031 µM (active) | GI50 (KM12): 0.0277 µM (active) | GI50 (LOX IMVI): 0.0426 µM (active) | GI50 (M14): 0.0344 µM (active) | GI50 (MCF7): 0.017 µM (active) | GI50 (MDA-MB-435): < 0.01 µM (active) | GI50 (MDA-N): 0.0113 µM (active) | GI50 (MOLT-4): 0.0271 µM (active) | GI50 (Malme-3M): 0.0121 µM (active) | GI50 (NCI-H226): 1.39 µM (inactive) | GI50 (NCI-H23): 0.21 µM (active) | GI50 (NCI-H460): 0.032 µM (active) | GI50 (NCI-H522): 0.0119 µM (active) | GI50 (NCI/ADR-RES): 0.0187 µM (active) | GI50 (OVCAR-3): 0.0188 µM (active) | GI50 (PC-3): 0.0234 µM (active) | GI50 (RPMI-8226): 0.0269 µM (active) | GI50 (RXF 393): 0.0165 µM (active) | GI50 (SF-268): 0.0429 µM (active) | GI50 (SF-295): 0.0208 µM (active) | GI50 (SF-539): 0.0188 µM (active) | GI50 (SK-MEL-5): 0.0221 µM (active) | GI50 (SK-OV-3): 0.0287 µM (active) | GI50 (SN12C): 0.143 µM (active) | GI50 (SR): 0.011 µM (active) | GI50 (SW-620): 0.0306 µM (active) | GI50 (TK-10): 0.039 µM (active) | GI50 (U-251): 0.0432 µM (active) | GI50 (UACC-257): 87.7 µM (inactive) | GI50 (UACC-62): 0.0263 µM (active) | GI50 (UO-31): 0.0562 µM (active)

COC(=O)C(C(=O)C(=O)Nc1c(C)cccc1C(C)(C)C)c1nc2ccc(Cl)cc2nc1O (centres undefined)
GI50 (786-0): > 100 µM (inactive) | GI50 (A498): > 100 µM (inactive) | GI50 (A549): > 100 µM (inactive) | GI50 (ACHN): > 100 µM (inactive) | GI50 (BT-549): > 100 µM (inactive) | GI50 (CAKI-1): > 100 µM (inactive) | GI50 (CCRF-CEM): > 100 µM (inactive) | GI50 (EKVX): 49.8 µM (inactive) | GI50 (HCC 2998): > 100 µM (inactive) | GI50 (HCT-116): > 100 µM (inactive) | GI50 (HCT-15): > 100 µM | GI50 (HOP-62): > 100 µM (inactive) | GI50 (HOP-92): > 100 µM (inactive) | GI50 (HT-29): > 100 µM (inactive) | GI50 (Hs-578T): > 100 µM (inactive) | GI50 (IGROV-1): 25.8 µM (inactive) | GI50 (K562): > 100 µM (inactive) | GI50 (KM12): > 100 µM (inactive) | GI50 (LOX IMVI): > 100 µM (inactive) | GI50 (M14): > 100 µM (inactive) | GI50 (MCF7): > 100 µM (inactive) | GI50 (MDA-MB-231): > 100 µM (inactive) | GI50 (MDA-MB-435): > 100 µM (inactive) | GI50 (MOLT-4): > 100 µM (inactive) | GI50 (Malme-3M): > 100 µM (inactive) | GI50 (NCI-H226): > 100 µM (inactive) | GI50 (NCI-H23): > 100 µM (inactive) | GI50 (NCI-H460): > 100 µM (inactive) | GI50 (NCI-H522): 94.2 µM (inactive) | GI50 (NCI/ADR-RES): > 100 µM (inactive) | GI50 (OVCAR-3): > 100 µM (inactive) | GI50 (OVCAR-4): > 100 µM (inactive) | GI50 (OVCAR-5): > 100 µM (inactive) | GI50 (OVCAR-8): > 100 µM (inactive) | GI50 (PC-3): > 100 µM (inactive) | GI50 (RPMI-8226): > 100 µM (inactive) | GI50 (RXF 393): > 100 µM (inactive) | GI50 (SF-268): > 100 µM (inactive) | GI50 (SF-295): > 100 µM (inactive) | GI50 (SF-539): > 100 µM (inactive) | GI50 (SK-MEL-28): > 100 µM (inactive) | GI50 (SK-MEL-2): > 100 µM (inactive) | GI50 (SK-MEL-5): > 100 µM (inactive) | GI50 (SK-OV-3): > 100 µM (inactive) | GI50 (SN12C): > 100 µM (inactive) | GI50 (SNB-19): 86.5 µM (inactive) | GI50 (SNB-75): > 100 µM (inactive) | GI50 (SR): > 100 µM (inactive) | GI50 (SW-620): > 100 µM (inactive) | GI50 (T47D): > 100 µM (inactive) | GI50 (TK-10): > 100 µM (inactive) | GI50 (U-251): > 100 µM (inactive) | GI50 (UACC-257): > 100 µM (inactive) | GI50 (UACC-62): > 100 µM (inactive) | GI50 (UO-31): > 100 µM (inactive)
